Broadly, the melting point is the temperature of the solid-liquid transition. Broadly, the % Inhibition is the relative decrease from the control value, in per cent.

Data on five molecules can be found in US6413975B1, “Purine derivatives having phosphodiesterase iv inhibition activity” (Euro-Celtique, S.A., priority 1999, dated 2002).

Where two headings read alike, the source gives them in different places.

The test system of series [1] is Guinea pig isolated trachealis muscle. The series can be described thus: Isolated guinea pig trachea: relaxation of airways muscle. The series is classed as cell-based. The conditions noted are these: compared with theophylline as standard (= 1); cumulative concentration effect curves. On the procedure:
The test compound was dissolved in dimethylsulfoxide. Guinea pig isolated trachealis muscle was mounted in a bath containing Krebs solution maintained at 37.5° C. and bubbled with carbogen (95% 02, 5% CO2).
Tension changes were recorded isometrically using force displacement transducers in conjunction with potentiometric pen recorders.
The ability of the test compounds to relax airways muscle was investigated by the construction of cumulative concentration effect curves. Each concentration of the test compound was allowed to equilibrate with the tissue for 5 minutes before a concentration increment (ten-fold) was made.
In each tissue the test compound was compared with theophylline as standard.

Series [2] deals with Type IV PDE. Kind of series: PDE IV inhibition: hydrolysis of [3H]-cyclic AMP by isolated Type IV PDE. The series is classed as biochemical, bovine. In outline:
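Type IV PDE was partially purified from bovine tracheal smooth muscle by DEAE ion-exchange chromatography. Activity was measured as [3H]-cAMP hydrolysis at 0.2 μM cAMP (≈Km), with protein adjusted so that ≤15% of substrate was hydrolysed. Compounds were tested in 2.5% final DMSO.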

Series [3] has as its system ovalbumin-sensitized guinea pigs (eosinophils in BAL). Kind of series: Ovalbumin sensitization and challenge in guinea pigs, differential cell counts in bronchoalveolar lavage. It counts as in vivo, guinea pig. The following applies: 5 mg/kg ip one hour prior to ovalbumin challenge. On the procedure:
(i) The effect of test compounds in a model of bronchial hyperresponsiveness (BHR) and cellular infiltration in the guinea pig induced by ovalbumin (see, for example Morley et al, Agents and Actions, Supplement, 1988, 23, 187) were studied.
(ii) Sensitization and Challenge procedure: Male Dunkin Hartley guine pigs (Charles River) (200-250 g) were injected i.p. with ovalbumin (OVA) (0.5 ml/animal; 20 μg OVA in AlOH)3 (moist gel)); this preparation produced an injectable stable suspension containing excess Al(OH)3. Sham animals were injected with 0.5 ml Al(OH)3 alone. After a period of 18-21 days animals were exposed to an aerosol of OVA (100 μg/ml) for 1 hour in an exposure chamber.
(iii) Bronchoalveloar lavage: Animals were anaesthetized, 24 hours after aerosol exposure, with urethane (25%, w/v, 7 ml/kg, i.p.) and the trachea cannulated. Bronchoalveo-lar lavage (BAL) was performed by instilling 5 ml sterile saline into the lungs via the tracheal cannula and the fluid was immediately removed. The fluid was reinjected and the procedure repeated 5 times in total. […] Total cell counts were perfomed on the resultant BAL fluid using an improved Neubauer haemocytometer. Cytospin preparations were prepared using a Shandon Cytospin 2 centrifuge. Two drops of BAL fluid were added to each cytospin cup and the samples were centrifuged for 1 min at 1300 r.p.m. Slides were fixed in acetone and stained with haemotoxylin and carbol chromotrope according to the method described by Lendrum (Lendrum 1944), differential cell counts were performed on each slide by counting 200 cells at random, the cell types were classified as neutrophils, eosinophils and mononuclear cells according to standard morphological criteria. Cells were counted blind. The results are expressed as the number of neutrophils, eosinophils and mononuclear cells per ml of BAL fluid. The remaining BAL fluid was centrifuged (10 min., 1000 g) and the resultant cells and cell free supernatants were aliquotted and frozen for later assays. Compounds were solu-bilized in either DMSO or saline administered intraperitoreally at a dose of 5 mg/kg one hour prior to ovalbumin challenge.

Take `Cn1c(=O)c2[nH]cnc2n(C)c1=O` [Theophylline, reference compound]: in series [1], the “In Vitro Activity” value is listed as 1.
The molecule `CCNc1ncn(Cc2ccccc2)c2ncnc1-2` [3-Benzyl-6-ethylamino-3H-purine] returned a melting point of 187 to 188 °C. Moreover, the “In Vitro Activity” value in series [1] worked out at 18.5.
As to `CCCCCCn1cnc(NCC)c2ncnc1-2` [6-Ethylamino-3-hexyl-3H-purine], the “In Vitro Activity” value in series [1] was 25.6.
Take `CCNc1ncn(CC)c2nc(C3CC3)nc1-2` [8-Cyclopropyl-3-ethyl-6-ethylamino-3H-purine]: the IC50 in series [2] (adenines, Table 7, read-out: calc PDE IV IC50) was 27100 nM. Besides, in series [1], the “In Vitro Activity” value is listed as 43.7.
Regarding `COc1ccc(Cn2c(=S)[nH]c(=S)c3[nH]c(C(C)C)nc32)cc1OC1CCCC1` [3-(3-cyclopentyloxy-4-methoxybenzyl)-3,7-dihydro-8-isopropyl-2,6-dithio-1H-purine-2,6-dione], the IC50 in series [2] (dithioxanthines, Table 5, read-out: IC50 PDE IV) is 600 nM; in series [2] (read-out: PDE IV I50), 800 nM. For the same molecule, the “% Eosinophils in BAL x ± se” value in series [3] (BAL 24 hours after aerosol exposure) came to 17 ± 3%. In addition, in series [3] (eosinophils in BAL versus vehicle), the “% Inhibition” value was determined as 47%.
